Measurements as given in patent US8865756B2, “Inhibitors of HCV NS5A” (Presidio Pharmaceuticals, Inc., priority 2008, dated 2014).

These molecules were tested on HCV 1b_Huh-Luc/Neo-ET cell line persistently expressing a bicistronic genotype 1b replicon in Huh 7 cells (assay: HCV replicon assay (luciferase readout)). Settings: Hepatitis C virus, Huh-7, 72 h, read-out: Inhibition of HCV genotype 1b.
Format: cell-based
In short: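 EC50, determined repeatedly, comes from a four-parameter logistic fit of luciferase signal as percent of untreated control. Readout follows 72 h compound exposure, in triplicate, of the HCV 1b_Huh-Luc/Neo-ET replicon line.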

| SMILES | EC50 [nM] |
| --- | --- |
| CN1CCN(C(=O)N[C@@H](C(=O)N2CCC[C@H]2c2ncc(-c3ccc(C#Cc4ccc(-c5cnc([C@@H]6CCCN6C(=O)[C@H](NC(=O)C6CC6)c6ccccc6)[nH]5)cc4)cc3)[nH]2)c2ccccc2)CC1 [Compound 238] | < 1 |
| CC[C@H](NC(=O)OC)C(=O)N1CCC[C@H]1c1ncc(-c2ccc(C#Cc3ccc4nc([C@@H]5CCCN5C(=O)[C@H](CC)NC(=O)OC)[nH]c4c3)cc2)[nH]1 [Compound 1036] | < 1 |
| COC(=O)N[C@@H](C)C(=O)N1CCC[C@H]1c1ncc(-c2ccc(C#Cc3ccc(-c4cnc([C@@H]5CCCN5C(=O)[C@H](C)NC(=O)OC)[nH]4)cc3)cc2)[nH]1 [Compound 962] | < 1 |
| C[C@H](NC(=O)[C@@H]1CCCN1C(=O)[C@H](NC(=O)OC(C)(C)C)c1ccccc1)c1ccc(C#Cc2cnc([C@@H]3CCCN3C(=O)[C@H](NC(=O)OC(C)(C)C)c3ccccc3)[nH]2)cc1 [Compound 130] | 10 to 999 |
| C(#Cc1ccc2nc([C@@H]3CCCN3Cc3ccccc3)[nH]c2c1)c1ccc(-c2cnc([C@@H]3CCCN3Cc3ccccc3)[nH]2)cc1 [Compound 1052] | > 1000 |
| COC(=O)N[C@@H](CC(C)C)C(=O)N1CCC[C@H]1c1ncc(-c2ccc(C#Cc3ccc(-c4cnc([C@@H]5CCCN5C(=O)[C@H](CC(C)C)NC(=O)OC)[nH]4)cc3)cc2)[nH]1 [Compound 961] | < 1 |
| CS(=O)(=O)N[C@@H](C(=O)N1CCC[C@H]1c1ncc(-c2ccc(C#Cc3ccc(-c4cnc([C@@H]5CCCN5C(=O)[C@@H](c5ccccc5)N5CCCC5)[nH]4)cc3)cc2)[nH]1)c1ccccc1 [Compound 230] | < 1 |
| COC(=O)N[C@H](C(=O)N1CCC[C@H]1c1nc(-c2ccc3cc(C#Cc4cnc([C@@H]5CCCN5C(=O)[C@H](NC(=O)OC)c5ccccc5)[nH]4)ccc3c2)c[nH]1)C(C)C [Compound 1077] | < 1 |
| CC(C)[C@H](NC(=O)N1CC[C@@H](O)C1)C(=O)N1CCC[C@H]1c1ncc(-c2ccc(C#Cc3ccc(-c4cnc([C@@H]5CCCN5C(=O)[C@@H](NC(=O)N5CC[C@@H](O)C5)C(C)C)[nH]4)cc3)cc2)[nH]1 [Compound 968] | 10 to 999 |
| COC(=O)N[C@@H](C(=O)N1CCC[C@H]1c1ncc(-c2ccc(C#Cc3ccc(-c4cnc([C@@H]5CCCN5C(=O)[C@H](NC(=O)C5CC5)c5ccccc5)[nH]4)cc3)cc2)[nH]1)c1ccccc1 [Compound 218] | < 1 |
| COC(=O)N[C@@H](C(=O)N1CCC[C@H]1c1ncc(-c2ccc(C#Cc3ccc(C(=O)NC[C@@H]4CCCN4C(=O)[C@@H](c4ccccc4)N(C)C)cc3)cc2)[nH]1)c1ccccc1 [Compound 234] | < 1 |
| COC(=O)N[C@H](C(=O)N1CCC[C@H]1c1ncc(-c2ccc(C#Cc3ccc(-c4cnc([C@H](C)NC(=O)[C@H](C(C)C)N(C)C)[nH]4)cc3)cc2)[nH]1)C(C)C [Compound 981] | 10 to 999 |
| O=C(N[C@@H](C(=O)N1CCC[C@H]1c1ncc(-c2ccc(C#Cc3ccc(-c4cnc([C@@H]5CCCN5C(=O)[C@@H](c5ccccc5)N5CCCCC5)[nH]4)cc3)cc2)[nH]1)c1ccccc1)C1CC1 [Compound 208] | < 1 |
| CN(C)C(=O)N[C@@H](C(=O)N1CCC[C@H]1c1cc(-c2ccc(C#Cc3ccc(-c4cnc([C@@H]5CCCN5C(=O)[C@H](NC(=O)N(C)C)c5ccccc5)[nH]4)cc3)cc2)n[nH]1)c1ccccc1 [Compound 221] | < 1 |
| COC(=O)N[C@H](C(=O)N(C)[C@@H](C)c1ncc(-c2ccc(C#Cc3ccc(-c4cnc([C@@H]5CCCN5C(=O)[C@@H](NC(=O)OC)C(C)C)[nH]4)cc3)cc2)[nH]1)C(C)C [Compound 267] | < 1 |
| COC(=O)N[C@H](C(=O)N1CCC[C@H]1c1ncc(-c2ccc(C#Cc3ccc(-c4cnc([C@@H]5CCCN5C(=O)[C@H](NC(=O)N5CC[C@@H](O)C5)c5ccccc5)[nH]4)cc3)cc2)[nH]1)C(C)C [Compound 975] | < 1 |
| O=C(N[C@@H](C(=O)N1CCC[C@H]1c1ncc(C#Cc2ccc(-c3cnc([C@@H]4CCCN4C(=O)[C@H](NC(=O)C4CC4)c4ccccc4)[nH]3)cc2)[nH]1)c1ccccc1)C1CC1 [Compound 100] | < 1 |
| COC(=O)N[C@@H](C(=O)N1CCC[C@H]1c1ncc(C#Cc2ccc(C#Cc3cnc([C@@H]4CCCN4C(=O)[C@@H](c4ccccc4)N4CCCCC4)[nH]3)cc2)[nH]1)c1ccccc1 [Compound 312] | < 1 |
| CN(C)[C@@H](C(=O)N1CCC[C@H]1c1ncc(C#Cc2ccc(-c3cnc([C@@H]4CCCN4C(=O)[C@H](NC(=O)C4CC4)c4ccccc4)[nH]3)cc2)[nH]1)c1ccccc1 [Compound 133] | < 1 |
| COC(=O)N[C@@H](C(=O)N1CCC[C@H]1c1ncc(-c2ccc(C#Cc3ccc4nc([C@@H]5CCCN5C(=O)[C@H](NC(=O)OC)C(C)C)[nH]c4c3)cc2)[nH]1)C(C)C [Compound 861] | 10 to 999 |
| COC(=O)N[C@H](C(=O)N1CCC[C@H]1c1ncc(-c2ccc(C#Cc3ccc(-c4cnc([C@@H]5CCCN5C(=O)[C@@H](NC(=O)OC)C5CCOCC5)[nH]4)c(F)c3)cc2)[nH]1)C1CCOCC1 [Compound 1012] | < 1 |

| SMILES | EC50 [nM] |
| --- | --- |
| C[C@H]1OC(=O)N[C@@H]1C(=O)N1CCC[C@H]1c1ncc(-c2ccc(C#Cc3ccc(-c4cnc([C@@H]5CCCN5C(=O)[C@H]5NC(=O)O[C@@H]5C)[nH]4)cc3)cc2)[nH]1 [Compound 979] | 10 to 999 |
| COC(=O)N[C@H](C(=O)N1CCC[C@H]1c1nc2ccc(C#Cc3ccc(-c4cnc([C@@H]5CCCN5C(=O)[C@@H](C(C)C)N(C)C)[nH]4)cc3)cc2[nH]1)C(C)C [Compound 865] | < 1 |
| O=C(N[C@@H](C(=O)N1CCC[C@H]1c1ncc(C#Cc2ccc(C#Cc3cnc([C@@H]4CCCN4C(=O)[C@H](NC(=O)N4CCOCC4)c4ccccc4)[nH]3)cc2)[nH]1)c1ccccc1)N1CCOCC1 [Compound 309] | < 1 |
| COC(=O)NCC(=O)N1CCC[C@H]1c1ncc(-c2ccc(C#Cc3ccc4nc([C@@H]5CCCN5C(=O)CNC(=O)OC)[nH]c4c3)cc2)[nH]1 [Compound 1049] | 10 to 999 |
| COC(=O)N[C@@H](C(=O)N1CCC[C@H]1c1ncc(-c2ccc(C#Cc3ccc(-c4cnc([C@@H]5CCCN5C(=O)[C@H](NC(=O)N5CCC(O)CC5)c5ccccc5)[nH]4)cc3)cc2)[nH]1)c1ccccc1 [Compound 241] | < 1 |
| CC(C)(C)OC(=O)NCC(=O)N1CCC[C@H]1c1ncc(C#Cc2ccc(-c3cnc([C@@H]4CCCN4C(=O)CNC(=O)OC(C)(C)C)[nH]3)cc2)[nH]1 [Compound 103] | 10 to 999 |
| COC(=O)N[C@H](C(=O)N1CCC[C@H]1c1nc(-c2cnc3cc(C#Cc4ccc(-c5cnc([C@@H]6CCCN6C(=O)[C@@H](NC(=O)OC)c6ccccc6)[nH]5)cc4)ccc3c2)c[nH]1)c1ccccc1 [Compound 1089] | 1 to 9.9 |
| CS(=O)(=O)N[C@@H](C(=O)N1CCC[C@H]1c1ncc(-c2ccc(C#Cc3ccc(-c4cnc([C@@H]5CCCN5C(=O)[C@@H](c5ccccc5)N5CCOCC5)[nH]4)cc3)cc2)[nH]1)c1ccccc1 [Compound 232] | < 1 |
| CC(C)[C@@H](NC(=O)C1CC1)C(=O)N1CCC[C@H]1C(=O)Nc1ccc(C#Cc2cnc([C@@H]3CCCN3C(=O)[C@H](NC(=O)C3CC3)C(C)C)[nH]2)cc1 [Compound 116] | 1 to 9.9 |
| COC(=O)N[C@@H](C(=O)N1CCC[C@H]1c1ncc(-c2ccc(C#Cc3ccc(-c4cnc([C@@H]5CCCN5C(=O)[C@H](NC(=O)N5CCOCC5)c5ccccc5)[nH]4)cc3)cc2)[nH]1)c1ccccc1 [Compound 224] | < 1 |
| O=C(N[C@@H](C(=O)N1CCC[C@H]1c1ncc(C#Cc2ccc(-c3cnc([C@@H]4CCCN4C(=O)[C@H](NC(=O)N4CCOCC4)c4ccccc4)[nH]3)cc2)[nH]1)c1ccccc1)N1CCOCC1 [Compound 102] | 1 to 9.9 |
| COC(=O)NC(C(=O)N1CCC[C@H]1c1ncc(-c2ccc(C#Cc3ccc(-c4cnc([C@@H]5CCCN5C(=O)[C@@H](NC(=O)OC)C(C)C)[nH]4)cc3)cc2)[nH]1)[C@@H](C)OC (stereo partly drawn) [Compound 972] | < 1 |
| COC(=O)N[C@@H](C(=O)N1CCC[C@H]1c1ncc(-c2ccc(C#Cc3ccc(-c4cnc([C@@H]5CCCN5C(=O)[C@H](NC(=O)N5CC[C@H](O)C5)c5ccccc5)[nH]4)cc3)cc2)[nH]1)c1ccccc1 [Compound 269] | < 1 |
| COC(=O)N[C@H](C(=O)N1CCC[C@H]1c1nc(-c2cnc3cc(C#Cc4cnc([C@@H]5CCCN5C(=O)[C@@H](NC(=O)OC)C(C)C)[nH]4)ccc3c2)c[nH]1)C(C)C [Compound 1076] | < 1 |
| COC(=O)NC1(C(=O)N2CCC[C@H]2c2ncc(-c3ccc(C#Cc4ccc5nc([C@@H]6CCCN6C(=O)C6(NC(=O)OC)CC6)[nH]c5c4)cc3)[nH]2)CC1 [Compound 1043] | 10 to 999 |
| CC(C)[C@H](NC(=O)N1CCOCC1)C(=O)N1CCC[C@H]1c1ncc(-c2ccc(C#Cc3ccc(-c4cnc([C@@H]5CCCN5C(=O)[C@@H](NC(=O)N5CCOCC5)C(C)C)[nH]4)cc3)cc2)[nH]1 [Compound 285] | > 1000 |
| COC(=O)N[C@@H](C(=O)N1CCC[C@H]1c1ncc(-c2ccc(C#Cc3ccc(-c4cnc([C@@H]5CCCN5C(=O)[C@H](NC(=O)OC)c5ccccc5)[nH]4)cn3)cc2)[nH]1)c1ccccc1 [Compound 1010] | < 1 |
| COC(=O)N[C@H](C(=O)N1CCC[C@H]1c1nc(-c2cnc3cc(C#Cc4ccc(-c5cnc([C@@H]6CCCN6C(=O)[C@@H](NC(=O)OC)C(C)C)[nH]5)cc4)ccc3c2)c[nH]1)C(C)C [Compound 1088] | 1 to 9.9 |
| COC(=O)N[C@@H](Cc1ccccc1)C(=O)N1CCC[C@H]1c1ncc(-c2ccc(C#Cc3ccc4nc([C@@H]5CCCN5C(=O)[C@H](Cc5ccccc5)NC(=O)OC)[nH]c4c3)cc2)[nH]1 [Compound 1045] | < 1 |
| O=C(Cc1cccnc1)N[C@@H](C(=O)N1CCC[C@H]1c1cc(-c2ccc(C#Cc3ccc(-c4cnc([C@@H]5CCCN5C(=O)[C@H](NC(=O)Cc5cccnc5)c5ccccc5)[nH]4)cc3)cc2)n[nH]1)c1ccccc1 [Compound 222] | < 1 |
| COC(=O)N[C@H](C(=O)N1C[C@H](F)C[C@H]1c1ncc(-c2ccc(C#Cc3ccc4nc([C@@H]5CCCN5C(=O)[C@@H](NC(=O)OC)C(C)C)[nH]c4c3)cc2)[nH]1)C(C)C [Compound 1040] | < 1 |
